Results reported in PMC7211202 (Investigational New Drugs, 2019).

Assay: Patient incidence of adverse events (CTCAE version 4.0)
Type: in vivo
Details: 240-mg dose expansion
Text: Each patient was monitored for 21 days for the occurrence of dose-limiting toxicities (DLTs), defined as febrile neutropenia, neutropenic infection, grade 4 neutropenia lasting >7 days, grade ≥ 3 thrombocytopenia lasting >7 days (solid tumors only), grade 3 thrombocytopenia with grade ≥ 2 bleeding (solid tumors only), grade 3 or 4 thrombocytopenia with grade > 1 bleeding (multiple myeloma only), grade 4 thrombocytopenia (solid tumors only), or grade 4 thrombocytopenia lasting >14 days (multiple myeloma only), or as grade ≥ 3 nausea, vomiting, or diarrhea after support; grade 3 fatigue lasting >7 days; any other grade ≥ 3 adverse event (AE); grade ≥ 3 kidney injury (multiple myeloma only), or treatment-related AEs not returning to grade ≤ 1 (solid tumors only) per Common Terminology Criteria for Adverse Events (CTCAE), version 4.0. The MTD was defined as the maximum dose, at which the probability of a DLT was ≤25% in Part 1A and ≤ 33% in Parts 1B and 1C. Treatment continued until disease progression, intolerable toxicity, or withdrawal of consent.
AEs were recorded for all enrolled patients.

Compound: CC(C)[C@@H](CS(=O)(=O)C(C)C)N1C(=O)[C@@](C)(CC(=O)O)C[C@H](c2cccc(Cl)c2)[C@H]1c1ccc(Cl)cc1 [AMG 232]
- AE resulting in treatment discontinuation: fatigue: 2 n
- AE resulting in treatment discontinuation: vomiting: 4 n
- Patients with AEs resulting in treatment discontinuation: 13 (19%) n (%)
- Patients with any serious, treatment-related AE (DDLPS (n = 10)): 0 n (%)
- Patients with any treatment-emergent AE (DDLPS (n = 10)): 9 (90) n (%)
- Patients with any treatment-emergent serious AE (DDLPS (n = 10)): 4 (40) n (%)
- Patients with any treatment-related AE (DDLPS (n = 10)): 9 (90) n (%)
- Patients with any treatment-related AE, Grade 3 (DDLPS (n = 10)): 0 n (%)
- Patients with any treatment-related AE, Grade 4 (DDLPS (n = 10)): 0 n (%)
- Patients with any treatment-related AE, Grade 5 (DDLPS (n = 10)): 0 n (%)
- Serious, treatment-related AE: Dehydration (grade 3) (DDLPS (n = 10)): 0 n (%)
- Serious, treatment-related AE: Diarrhea (grade 3) (DDLPS (n = 10)): 0 n (%)
- Serious, treatment-related AE: Hyperamylasemia (grade 3) (DDLPS (n = 10)): 0 n (%)
- Serious, treatment-related AE: Hyperlipasemia (grade 3) (DDLPS (n = 10)): 0 n (%)
- Serious, treatment-related AE: Nausea (grade 3) (DDLPS (n = 10)): 0 n (%)
- Serious, treatment-related AE: Pulmonary embolism (grade 3) (DDLPS (n = 10)): 0 n (%)
- Serious, treatment-related AE: Vomiting (grade 3) (DDLPS (n = 10)): 0 n (%)
- Treatment-related AE: Anemia (DDLPS (n = 10)): 0 n (%)
- Treatment-related AE: Asthenia (DDLPS (n = 10)): 1 (10) n (%)
- Treatment-related AE: Decrease appetite (DDLPS (n = 10)): 4 (40) n (%)
- Treatment-related AE: Diarrhea (DDLPS (n = 10)): 6 (60) n (%)
- Treatment-related AE: Dysgeusia (DDLPS (n = 10)): 1 (10) n (%)
- Treatment-related AE: Fatigue (DDLPS (n = 10)): 7 (70) n (%)
- Treatment-related AE: Nausea (DDLPS (n = 10)): 8 (80) n (%)
- Treatment-related AE: Neutropenia (DDLPS (n = 10)): 0 n (%)
- Treatment-related AE: Thrombocytopenia (DDLPS (n = 10)): 1 (10) n (%)
- Treatment-related AE: Vomiting (DDLPS (n = 10)): 2 (20) n (%)
- Patients with any serious, treatment-related AE (ER + PR+ Breast (n = 8)): 2 (25) n (%)
- Patients with any treatment-emergent AE (ER + PR+ Breast (n = 8)): 8 (100) n (%)
- Patients with any treatment-emergent serious AE (ER + PR+ Breast (n = 8)): 3 (38) n (%)
- Patients with any treatment-related AE (ER + PR+ Breast (n = 8)): 8 (100) n (%)
- Patients with any treatment-related AE, Grade 3 (ER + PR+ Breast (n = 8)): 4 (50) n (%)
- Patients with any treatment-related AE, Grade 4 (ER + PR+ Breast (n = 8)): 0 n (%)
- Patients with any treatment-related AE, Grade 5 (ER + PR+ Breast (n = 8)): 0 n (%)
- Serious, treatment-related AE: Dehydration (grade 3) (ER + PR+ Breast (n = 8)): 0 n (%)
- Serious, treatment-related AE: Diarrhea (grade 3) (ER + PR+ Breast (n = 8)): 1 (13) n (%)
- Serious, treatment-related AE: Hyperamylasemia (grade 3) (ER + PR+ Breast (n = 8)): 0 n (%)
- Serious, treatment-related AE: Hyperlipasemia (grade 3) (ER + PR+ Breast (n = 8)): 0 n (%)
- Serious, treatment-related AE: Nausea (grade 3) (ER + PR+ Breast (n = 8)): 1 (13) n (%)
- Serious, treatment-related AE: Pulmonary embolism (grade 3) (ER + PR+ Breast (n = 8)): 0 n (%)
- Serious, treatment-related AE: Vomiting (grade 3) (ER + PR+ Breast (n = 8)): 1 (13) n (%)
- Treatment-related AE: Anemia (ER + PR+ Breast (n = 8)): 0 n (%)
- Treatment-related AE: Asthenia (ER + PR+ Breast (n = 8)): 1 (13) n (%)
- Treatment-related AE: Decrease appetite (ER + PR+ Breast (n = 8)): 5 (63) n (%)
- Treatment-related AE: Diarrhea (ER + PR+ Breast (n = 8)): 7 (88) n (%)
- Treatment-related AE: Dysgeusia (ER + PR+ Breast (n = 8)): 2 (25) n (%)
- Treatment-related AE: Fatigue (ER + PR+ Breast (n = 8)): 3 (38) n (%)
- Treatment-related AE: Nausea (ER + PR+ Breast (n = 8)): 6 (75) n (%)
- Treatment-related AE: Neutropenia (ER + PR+ Breast (n = 8)): 0 n (%)
- Treatment-related AE: Thrombocytopenia (ER + PR+ Breast (n = 8)): 0 n (%)
- Treatment-related AE: Vomiting (ER + PR+ Breast (n = 8)): 6 (75) n (%)
- Patients with any serious, treatment-related AE (ER + PR–Breast (n = 4)): 0 n (%)
- Patients with any treatment-emergent AE (ER + PR–Breast (n = 4)): 4 (100) n (%)
- Patients with any treatment-emergent serious AE (ER + PR–Breast (n = 4)): 1 (25) n (%)
- Patients with any treatment-related AE (ER + PR–Breast (n = 4)): 4 (100) n (%)
- Patients with any treatment-related AE, Grade 3 (ER + PR–Breast (n = 4)): 1 (25) n (%)
- Patients with any treatment-related AE, Grade 4 (ER + PR–Breast (n = 4)): 0 n (%)
- Patients with any treatment-related AE, Grade 5 (ER + PR–Breast (n = 4)): 0 n (%)
- Serious, treatment-related AE: Dehydration (grade 3) (ER + PR–Breast (n = 4)): 0 n (%)
- Serious, treatment-related AE: Diarrhea (grade 3) (ER + PR–Breast (n = 4)): 0 n (%)
- Serious, treatment-related AE: Hyperamylasemia (grade 3) (ER + PR–Breast (n = 4)): 0 n (%)
- Serious, treatment-related AE: Hyperlipasemia (grade 3) (ER + PR–Breast (n = 4)): 0 n (%)
- Serious, treatment-related AE: Nausea (grade 3) (ER + PR–Breast (n = 4)): 0 n (%)
- Serious, treatment-related AE: Pulmonary embolism (grade 3) (ER + PR–Breast (n = 4)): 0 n (%)
- Serious, treatment-related AE: Vomiting (grade 3) (ER + PR–Breast (n = 4)): 0 n (%)
- Treatment-related AE: Anemia (ER + PR–Breast (n = 4)): 1 (25) n (%)
- Treatment-related AE: Asthenia (ER + PR–Breast (n = 4)): 1 (25) n (%)
- Treatment-related AE: Decrease appetite (ER + PR–Breast (n = 4)): 3 (75) n (%)
- Treatment-related AE: Diarrhea (ER + PR–Breast (n = 4)): 4 (100) n (%)
- Treatment-related AE: Dysgeusia (ER + PR–Breast (n = 4)): 0 n (%)
- Treatment-related AE: Fatigue (ER + PR–Breast (n = 4)): 0 n (%)
- Treatment-related AE: Nausea (ER + PR–Breast (n = 4)): 3 (75) n (%)
- Treatment-related AE: Neutropenia (ER + PR–Breast (n = 4)): 0 n (%)
- Treatment-related AE: Thrombocytopenia (ER + PR–Breast (n = 4)): 0 n (%)
- Treatment-related AE: Vomiting (ER + PR–Breast (n = 4)): 2 (50) n (%)
- Patients with any serious, treatment-related AE (GBM (n = 10)): 1 (10) n (%)
- Patients with any treatment-emergent AE (GBM (n = 10)): 10 (100) n (%)
- Patients with any treatment-emergent serious AE (GBM (n = 10)): 7 (70) n (%)
- Patients with any treatment-related AE (GBM (n = 10)): 10 (100) n (%)
- Patients with any treatment-related AE, Grade 3 (GBM (n = 10)): 4 (40) n (%)
- Patients with any treatment-related AE, Grade 4 (GBM (n = 10)): 0 n (%)
- Patients with any treatment-related AE, Grade 5 (GBM (n = 10)): 0 n (%)
- Serious, treatment-related AE: Dehydration (grade 3) (GBM (n = 10)): 0 n (%)
- Serious, treatment-related AE: Diarrhea (grade 3) (GBM (n = 10)): 0 n (%)
- Serious, treatment-related AE: Hyperamylasemia (grade 3) (GBM (n = 10)): 1 (10) n (%)
- Serious, treatment-related AE: Hyperlipasemia (grade 3) (GBM (n = 10)): 1 (10) n (%)
- Serious, treatment-related AE: Nausea (grade 3) (GBM (n = 10)): 0 n (%)
- Serious, treatment-related AE: Pulmonary embolism (grade 3) (GBM (n = 10)): 0 n (%)
- Serious, treatment-related AE: Vomiting (grade 3) (GBM (n = 10)): 0 n (%)
- Treatment-related AE: Anemia (GBM (n = 10)): 0 n (%)
- Treatment-related AE: Asthenia (GBM (n = 10)): 0 n (%)
- Treatment-related AE: Decrease appetite (GBM (n = 10)): 1 (10) n (%)
- Treatment-related AE: Diarrhea (GBM (n = 10)): 5 (50) n (%)
- Treatment-related AE: Dysgeusia (GBM (n = 10)): 1 (10) n (%)
- Treatment-related AE: Fatigue (GBM (n = 10)): 6 (60) n (%)
- Treatment-related AE: Nausea (GBM (n = 10)): 4 (40) n (%)
- Treatment-related AE: Neutropenia (GBM (n = 10)): 2 (20) n (%)
- Treatment-related AE: Thrombocytopenia (GBM (n = 10)): 2 (20) n (%)
- Treatment-related AE: Vomiting (GBM (n = 10)): 3 (30) n (%)
- Patients with any serious, treatment-related AE (Multiple Myeloma (n = 10)): 2 (20) n (%)
- Patients with any treatment-emergent AE (Multiple Myeloma (n = 10)): 10 (100) n (%)
- Patients with any treatment-emergent serious AE (Multiple Myeloma (n = 10)): 4 (40) n (%)
- Patients with any treatment-related AE (Multiple Myeloma (n = 10)): 10 (100) n (%)
- Patients with any treatment-related AE, Grade 3 (Multiple Myeloma (n = 10)): 6 (60) n (%)
- Patients with any treatment-related AE, Grade 4 (Multiple Myeloma (n = 10)): 3 (30) n (%)
- Patients with any treatment-related AE, Grade 5 (Multiple Myeloma (n = 10)): 0 n (%)
- Serious, treatment-related AE: Dehydration (grade 3) (Multiple Myeloma (n = 10)): 0 n (%)
- Serious, treatment-related AE: Diarrhea (grade 3) (Multiple Myeloma (n = 10)): 0 n (%)
- Serious, treatment-related AE: Hyperamylasemia (grade 3) (Multiple Myeloma (n = 10)): 0 n (%)
- Serious, treatment-related AE: Hyperlipasemia (grade 3) (Multiple Myeloma (n = 10)): 0 n (%)
- Serious, treatment-related AE: Nausea (grade 3) (Multiple Myeloma (n = 10)): 0 n (%)
- Serious, treatment-related AE: Pulmonary embolism (grade 3) (Multiple Myeloma (n = 10)): 0 n (%)
- Serious, treatment-related AE: Vomiting (grade 3) (Multiple Myeloma (n = 10)): 2 (20) n (%)
- Treatment-related AE: Anemia (Multiple Myeloma (n = 10)): 1 (10) n (%)
- Treatment-related AE: Asthenia (Multiple Myeloma (n = 10)): 4 (40) n (%)
- Treatment-related AE: Decrease appetite (Multiple Myeloma (n = 10)): 4 (40) n (%)
- Treatment-related AE: Diarrhea (Multiple Myeloma (n = 10)): 7 (70) n (%)
- Treatment-related AE: Dysgeusia (Multiple Myeloma (n = 10)): 2 (20) n (%)
- Treatment-related AE: Fatigue (Multiple Myeloma (n = 10)): 2 (20) n (%)
- Treatment-related AE: Nausea (Multiple Myeloma (n = 10)): 4 (40) n (%)
- Treatment-related AE: Neutropenia (Multiple Myeloma (n = 10)): 3 (30) n (%)
- Treatment-related AE: Thrombocytopenia (Multiple Myeloma (n = 10)): 3 (30) n (%)
- Treatment-related AE: Vomiting (Multiple Myeloma (n = 10)): 4 (40) n (%)
- Patients with any serious, treatment-related AE (Other Solid (n = 16)): 0 n (%)
- Patients with any treatment-emergent AE (Other Solid (n = 16)): 16 (100) n (%)
- Patients with any treatment-emergent serious AE (Other Solid (n = 16)): 5 (31) n (%)
- Patients with any treatment-related AE (Other Solid (n = 16)): 14 (88) n (%)
- Patients with any treatment-related AE, Grade 3 (Other Solid (n = 16)): 4 (25) n (%)
- Patients with any treatment-related AE, Grade 4 (Other Solid (n = 16)): 2 (13) n (%)
- Patients with any treatment-related AE, Grade 5 (Other Solid (n = 16)): 0 n (%)
- Serious, treatment-related AE: Dehydration (grade 3) (Other Solid (n = 16)): 0 n (%)
- Serious, treatment-related AE: Diarrhea (grade 3) (Other Solid (n = 16)): 0 n (%)
- Serious, treatment-related AE: Hyperamylasemia (grade 3) (Other Solid (n = 16)): 0 n (%)
